Molecules are shown by their SMILES. Read-outs that look alike come from different tables or passages of the source.

We go through 66 compounds from US12264155B2, “Compounds, pharmaceutical compositions, and methods of preparing compounds and of their use as ATR kinase inhibitors” (Repare Therapeutics Inc., priority 2018, dated 2025).

For the assay, the target named is ATR/ATRIP (Homo sapiens (Human), UniProt Q13535). Briefly: ATR/ATRIP enzymatic assay (AlphaScreen, phosphorylation of p53).
Where [1] appears, read: read-out: ATR IC50, recombinant ATR/ATRIP 0.63 nM, 25 nM GST-p53, 3 μM ATP, 1 hour room temperature.

ATR/ATRIP, sequence (Q13535 whole entry): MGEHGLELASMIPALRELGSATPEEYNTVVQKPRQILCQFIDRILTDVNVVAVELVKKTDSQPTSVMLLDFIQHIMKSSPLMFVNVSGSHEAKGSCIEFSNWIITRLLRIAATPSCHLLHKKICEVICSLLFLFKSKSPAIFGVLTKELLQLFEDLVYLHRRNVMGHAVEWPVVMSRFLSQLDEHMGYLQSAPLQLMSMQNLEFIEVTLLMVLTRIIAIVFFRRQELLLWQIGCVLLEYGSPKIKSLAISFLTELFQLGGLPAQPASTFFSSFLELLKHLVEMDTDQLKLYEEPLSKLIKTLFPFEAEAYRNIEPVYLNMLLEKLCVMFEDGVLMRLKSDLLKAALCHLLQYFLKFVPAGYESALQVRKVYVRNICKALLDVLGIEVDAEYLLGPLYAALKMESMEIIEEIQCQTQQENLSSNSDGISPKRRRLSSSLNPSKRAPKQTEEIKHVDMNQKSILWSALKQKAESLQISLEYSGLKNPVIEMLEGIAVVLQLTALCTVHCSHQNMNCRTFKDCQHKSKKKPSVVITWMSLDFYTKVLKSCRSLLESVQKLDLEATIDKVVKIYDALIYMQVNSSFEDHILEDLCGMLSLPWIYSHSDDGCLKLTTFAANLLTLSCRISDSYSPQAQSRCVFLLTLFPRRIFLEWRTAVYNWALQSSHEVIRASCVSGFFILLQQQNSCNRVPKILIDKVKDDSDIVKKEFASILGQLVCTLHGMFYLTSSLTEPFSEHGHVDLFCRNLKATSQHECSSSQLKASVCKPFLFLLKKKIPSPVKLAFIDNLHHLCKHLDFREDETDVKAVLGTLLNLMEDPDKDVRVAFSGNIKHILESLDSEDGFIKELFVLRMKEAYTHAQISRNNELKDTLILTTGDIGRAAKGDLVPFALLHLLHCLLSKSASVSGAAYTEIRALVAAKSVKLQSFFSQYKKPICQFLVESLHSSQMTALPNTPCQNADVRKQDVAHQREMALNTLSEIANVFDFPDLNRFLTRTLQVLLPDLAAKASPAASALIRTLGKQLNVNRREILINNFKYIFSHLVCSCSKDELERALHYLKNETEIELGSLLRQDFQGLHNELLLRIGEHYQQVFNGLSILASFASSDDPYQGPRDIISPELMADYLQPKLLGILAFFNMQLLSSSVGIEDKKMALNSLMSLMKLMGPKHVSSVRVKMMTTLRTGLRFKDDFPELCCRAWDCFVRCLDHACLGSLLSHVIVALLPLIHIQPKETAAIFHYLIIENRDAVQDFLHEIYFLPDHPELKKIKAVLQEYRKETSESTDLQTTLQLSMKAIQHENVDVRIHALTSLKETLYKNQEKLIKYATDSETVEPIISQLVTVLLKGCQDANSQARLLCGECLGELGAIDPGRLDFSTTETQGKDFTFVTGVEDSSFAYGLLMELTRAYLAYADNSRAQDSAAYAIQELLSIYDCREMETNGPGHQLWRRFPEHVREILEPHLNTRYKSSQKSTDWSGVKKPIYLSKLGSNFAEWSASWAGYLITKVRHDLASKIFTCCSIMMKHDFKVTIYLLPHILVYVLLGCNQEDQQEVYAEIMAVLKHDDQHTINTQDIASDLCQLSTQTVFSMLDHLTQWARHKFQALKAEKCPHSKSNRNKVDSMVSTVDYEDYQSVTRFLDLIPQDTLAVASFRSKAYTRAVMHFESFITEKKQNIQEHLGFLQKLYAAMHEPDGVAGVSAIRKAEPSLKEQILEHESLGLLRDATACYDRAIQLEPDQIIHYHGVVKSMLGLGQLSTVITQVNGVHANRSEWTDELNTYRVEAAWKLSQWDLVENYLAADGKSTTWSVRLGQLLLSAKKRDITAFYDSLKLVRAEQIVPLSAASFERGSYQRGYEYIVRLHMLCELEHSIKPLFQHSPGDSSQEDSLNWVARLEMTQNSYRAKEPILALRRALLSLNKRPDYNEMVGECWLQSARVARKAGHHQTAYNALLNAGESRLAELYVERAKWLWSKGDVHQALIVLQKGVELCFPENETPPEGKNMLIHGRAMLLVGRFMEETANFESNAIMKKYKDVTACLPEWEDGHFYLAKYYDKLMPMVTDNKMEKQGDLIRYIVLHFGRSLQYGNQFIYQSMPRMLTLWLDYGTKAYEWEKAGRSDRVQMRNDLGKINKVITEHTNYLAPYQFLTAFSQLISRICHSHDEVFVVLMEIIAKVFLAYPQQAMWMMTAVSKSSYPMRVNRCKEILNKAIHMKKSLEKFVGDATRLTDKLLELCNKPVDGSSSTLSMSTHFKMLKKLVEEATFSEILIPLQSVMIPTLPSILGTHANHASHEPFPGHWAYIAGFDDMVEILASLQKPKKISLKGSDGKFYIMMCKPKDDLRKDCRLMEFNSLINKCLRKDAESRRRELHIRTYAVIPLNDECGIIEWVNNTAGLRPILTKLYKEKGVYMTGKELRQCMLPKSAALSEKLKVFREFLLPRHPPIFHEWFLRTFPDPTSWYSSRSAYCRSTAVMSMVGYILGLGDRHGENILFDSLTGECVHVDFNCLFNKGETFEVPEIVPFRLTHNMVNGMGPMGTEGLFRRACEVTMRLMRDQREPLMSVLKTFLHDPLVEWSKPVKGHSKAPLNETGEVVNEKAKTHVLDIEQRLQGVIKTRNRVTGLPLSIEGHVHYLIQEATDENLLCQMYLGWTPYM
ATR/ATRIP, sequence (Q8WXE1 whole entry partner): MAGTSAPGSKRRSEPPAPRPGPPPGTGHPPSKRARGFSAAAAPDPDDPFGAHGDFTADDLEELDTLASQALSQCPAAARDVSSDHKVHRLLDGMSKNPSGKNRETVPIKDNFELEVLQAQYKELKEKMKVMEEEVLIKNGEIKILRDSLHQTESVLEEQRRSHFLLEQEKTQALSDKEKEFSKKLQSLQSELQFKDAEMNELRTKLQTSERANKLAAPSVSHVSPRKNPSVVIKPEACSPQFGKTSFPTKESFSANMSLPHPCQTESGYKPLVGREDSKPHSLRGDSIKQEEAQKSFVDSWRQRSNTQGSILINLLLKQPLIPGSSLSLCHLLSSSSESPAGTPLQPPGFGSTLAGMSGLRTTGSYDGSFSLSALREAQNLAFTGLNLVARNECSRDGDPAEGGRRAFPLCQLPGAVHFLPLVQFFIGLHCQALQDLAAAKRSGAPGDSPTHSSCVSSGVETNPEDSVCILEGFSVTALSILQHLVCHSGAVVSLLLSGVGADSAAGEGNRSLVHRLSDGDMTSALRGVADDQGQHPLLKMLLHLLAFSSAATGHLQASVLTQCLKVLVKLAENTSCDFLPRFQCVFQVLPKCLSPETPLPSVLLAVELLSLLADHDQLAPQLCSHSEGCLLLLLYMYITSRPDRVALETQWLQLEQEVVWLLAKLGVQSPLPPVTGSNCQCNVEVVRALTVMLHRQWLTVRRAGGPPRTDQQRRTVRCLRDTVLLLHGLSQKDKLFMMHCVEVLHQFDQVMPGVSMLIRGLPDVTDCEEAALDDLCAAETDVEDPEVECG
Experimental: Detection of ATR kinase activity utilized the AlphaScreen system to measure the phosphorylation of the substrate protein p53. […] Plates were incubated at room temperature in the dark for 4 hours and read on a BMG Polarstar using AlphaScreen dedicated filters. […] IC50 values were determined using a 4-parameter fit algorithm.

For `C[C@@H]1COCCN1c1cc(C(C)(C)O)c2cnn(-c3cc[nH]n3)c2n1` [Compound 2, (R)-2-(6-(3-methylmorpholino)-1-(1H-pyrazol-3-yl)-1H-pyrazolo[3,4-b]pyridin-4-yl)propan-2-ol], the IC50 under setting [1] stood at 40 nM.

`C[C@@H]1COCCN1c1cc(C(C)(C)C(N)=O)c2cnn(-c3cc[nH]n3)c2n1` [Compound 4, (R)-2-methyl-2-(6-(3-methylmorpholino)-1-(1H-pyrazol-3-yl)-1H-pyrazolo[3,4-b]pyridin-4-yl)propanamide]: under setting [1], the IC50 was found to be 56 nM.

With `C[C@@H]1COCCN1c1cc(C2(C#N)CCCCC2)c2cnn(-c3cc[nH]n3)c2n1` [Compound 5, (R)-1-(6-(3-methylmorpholino)-1-(1H-pyrazol-3-yl)-1H-pyrazolo[3,4-b]pyridin-4-yl)cyclohexane-1-carbonitrile], the IC50 under setting [1] turned out to be 3 nM.

With `C[C@@H]1COCCN1c1cc(-c2ccccc2S(C)(=O)=O)c2ccn(-c3cc[nH]n3)c2n1` [Compound 6, (R)-3-methyl-4-(4-(2-(methylsulfonyl)phenyl)-1-(1H-pyrazol-3-yl)-1H-pyrrolo[2,3-b]pyridin-6-yl)morpholine], the IC50 under setting [1] came out at 425 nM.

In the case of `Cc1cn(-c2cc[nH]n2)c2nc(N3CCOC[C@H]3C)cc(C(C)(C)C#N)c12` [Compound 7, (R)-2-methyl-2-(3-methyl-6-(3-methylmorpholino)-1-(1H-pyrazol-3-yl)-1H-pyrrolo[2,3-b]pyridin-4-yl)propanenitrile], the 50% inhibitory concentration (IC50) under setting [1] worked out at 403 nM.

As to `Cc1ccncc1-c1cc(N2CCOC[C@H]2C)nc2c1ccn2-c1cc[nH]n1` [Compound 9], the IC50 under setting [1] came to 37 nM.

Consider `C[C@@H]1COCCN1c1cc(C(C)(C)O)c2ccn(-c3cc[nH]n3)c2n1` [Compound 10], for which the IC50 under setting [1] worked out at 1600 nM.

`C[C@@H]1COCCN1c1cc(C(C)(C)C#N)c2ccn(-c3cc[nH]n3)c2n1` [Compound 11]: under setting [1], the IC50 is 101 nM.

In the case of `C[C@@H]1COCCN1c1cc(C(C)(C)C(N)=O)c2ccn(-c3cc[nH]n3)c2n1` [Compound 12], the IC50 under setting [1] was 379 nM.

Regarding `C[C@@H]1COCCN1c1cc(-c2ccncn2)c2ccn(-c3cc[nH]n3)c2n1` [Compound 13], the IC50 under setting [1] was 1650 nM.

With `Cc1ccc(-c2cc(N3CCOC[C@H]3C)nc3c2ccn3-c2cc[nH]n2)nn1` [Compound 14], the IC50 under setting [1] is 1150 nM.

`C[C@@H]1COCCN1c1cc(-c2ccncc2)c2ccn(-c3cc[nH]n3)c2n1` [Compound 15]: the IC50 under setting [1] is 1870 nM.

`COc1ccc(-c2cc(N3CCOC[C@H]3C)nc3c2ccn3-c2cc[nH]n2)cn1` [Compound 16]: the IC50 under setting [1] was determined as 1520 nM.

As for `C[C@@H]1COCCN1c1cc(Nc2cccnc2)c2ccn(-c3cc[nH]n3)c2n1` [Compound 17], under setting [1], the IC50 was 1210 nM.

For `C[C@@H]1COCCN1c1cc(C(=O)N2CCOCC2)c2ccn(-c3cc[nH]n3)c2n1` [Compound 18], the half-inhibitory concentration (IC50) under setting [1] stood at 1940 nM.

As for `C[C@@H]1COCCN1c1cc(C(=O)N(C)Cc2ccccc2)c2ccn(-c3cc[nH]n3)c2n1` [Compound 19], the IC50 under setting [1] came out at 540 nM.

As to `C[C@@H]1COCCN1c1cc(-c2ccccc2[S+](C)[O-])c2ccn(-c3cc[nH]n3)c2n1` (stereo partly drawn) [Compound 20], under setting [1], the IC50 was found to be 229 nM.

With `COc1ccc(-c2cc(N3CCOC[C@H]3C)nc3c2c(C)cn3-c2cc[nH]n2)cn1` [Compound 21], under setting [1], the IC50 is 828 nM.

`C[C@@H]1COCCN1c1cc(N(C)c2cccnc2)c2ccn(-c3cc[nH]n3)c2n1` [Compound 22]: the IC50 under setting [1] worked out at 876 nM.

As to `C[C@@H]1COCCN1c1cc(C(N)=O)c2cnn(-c3cc[nH]n3)c2n1` [Compound 23], the IC50 under setting [1] worked out at 264 nM.

Regarding `C[C@@H]1COCCN1c1cc(C(C)(C)C#N)c2cnn(-c3cc[nH]n3)c2n1` [Compound 24], the IC50 under setting [1] is 6 nM.

On to `C[C@@H]1COCCN1c1cc(C2(C#N)CCC2)c2cnn(-c3cc[nH]n3)c2n1` [Compound 27], for which the IC50 under setting [1] is 135 nM.

As to `C[C@@H]1COCCN1c1cc(C2(C#N)CCCC2)c2cnn(-c3cc[nH]n3)c2n1` [Compound 28], under setting [1], the IC50 is 4 nM.

`C[C@@H]1COCCN1c1cc(C2(C#N)CC2)c2ccn(-c3cc[nH]n3)c2n1` [Compound 29]: the IC50 under setting [1] was determined as 580 nM.

For `COC(C)(C)c1cc(N2CCOC[C@H]2C)nc2c1ccn2-c1cc[nH]n1` [Compound 30], under setting [1], the IC50 turned out to be 284 nM.

Turning to `CC(C)c1cc(N2CCOC[C@H]2C)nc2c1ccn2-c1cc[nH]n1` [Compound 31], the IC50 under setting [1] stood at 1420 nM.

Consider `C[C@@H]1COCCN1c1cc(CC#N)c2cnn(-c3cc[nH]n3)c2n1` [Compound 32], for which the IC50 under setting [1] was found to be 54 nM.

With `C[C@@H]1COCCN1c1cc(-c2ccnn2C)c2ccn(-c3cc[nH]n3)c2n1` [Compound 34], under setting [1], the IC50 came out at 451 nM.

In the case of `Cc1c[nH]nc1-n1ccc2c(C3(S(C)(=O)=O)CC3)cc(N3CCOC[C@H]3C)nc21` [Compound 36], the IC50 under setting [1] was above 1000 nM.

Regarding `C[C@@H]1COCCN1c1cc(C2(S(C)(=O)=O)CC2)c2ccn(-c3cn[nH]c3C(F)(F)F)c2n1` [Compound 37], under setting [1], the IC50 was above 1000 nM.

On to `C[C@@H]1COCCN1c1cc(C2(S(C)(=O)=O)CC2)c2ccn(-c3cn[nH]c3)c2n1` [Compound 38], for which the IC50 under setting [1] is above 1000 nM.

Regarding `COc1cc(-c2cc(N3CCOC[C@H]3C)nc3c2ccn3-c2cc[nH]n2)ccn1` [Compound 39], the IC50 under setting [1] is above 10000 nM.

As to `C[C@@H]1COCCN1c1cc(-c2cccs2)c2ccn(-c3cc[nH]n3)c2n1` [Compound 41], the IC50 under setting [1] was above 10000 nM.

In the case of `C[C@@H]1COCCN1c1cc(I)c2cnn(-c3ccn[nH]3)c2n1` [Compound 42], the concentration for half-maximal inhibition (IC50) under setting [1] was 32 nM.

Turning to `C[C@@H]1COCCN1c1cc(S(C)(=O)=O)c2cnn(-c3cc[nH]n3)c2n1` [Compound 44], the IC50 under setting [1] was 27 nM.

Turning to `C[C@@H]1COCCN1c1cc(S(=O)(=O)C2CC2)c2cnn(-c3cc[nH]n3)c2n1` [Compound 45], the IC50 under setting [1] is 5 nM.

In the case of `C[C@@H]1COCCN1c1cc(-c2ccccc2F)c2cnn(-c3ccn[nH]3)c2n1` [Compound 48], the IC50 under setting [1] turned out to be 5 nM.

`C[C@@H]1COCCN1c1cc(C(C)(C#N)C2COC2)c2cnn(-c3cc[nH]n3)c2n1` (stereo partly drawn) [Compound 49]: the IC50 under setting [1] was 11 nM.

As to `C[C@@H]1COCCN1c1cc(S(=O)(=O)c2ccccc2)c2cnn(-c3cc[nH]n3)c2n1` [Compound 50], the IC50 under setting [1] amounted to 116 nM.

With `COc1cc(N2CCOC[C@H]2C)nc2c1cnn2-c1cc[nH]n1` [Compound 51], the IC50 under setting [1] was determined as 141 nM.

On to `C[C@@H]1COCCN1c1cc(N(C)S(C)(=O)=O)c2cnn(-c3cc[nH]n3)c2n1` [Compound 52], for which the IC50 under setting [1] amounted to 8 nM.

As for `C[C@@H]1COCCN1c1cc(N2CCCCS2(=O)=O)c2cnn(-c3cc[nH]n3)c2n1` [Compound 53], the IC50 under setting [1] came to 9 nM.

Take `C[C@@H]1COCCN1c1cc(N2CCCS2(=O)=O)c2cnn(-c3cc[nH]n3)c2n1` [Compound 54]: the IC50 under setting [1] was determined as 23 nM.

For the compound `C[C@@H]1COCCN1c1cc(C2(O)CCC(C)(C#N)CC2)c2cnn(-c3cc[nH]n3)c2n1` (stereo partly drawn) [Compound 59], under setting [1], the IC50 worked out at 10 nM.

For the compound `C[C@@H]1COCCN1c1cc(C2(O)CCN(C)CC2)c2cnn(-c3cc[nH]n3)c2n1` [Compound 60], under setting [1], the half-inhibitory concentration (IC50) turned out to be 37 nM.

On to `C[C@@H]1COCCN1c1cc(C2(O)CCC3(CC2)CSC3)c2cnn(-c3cc[nH]n3)c2n1` [Compound 61], for which the IC50 under setting [1] came to 2 nM.

As for `C[C@@H]1COCCN1c1cc(C(C)(C)O)c2cnn(-c3ccccn3)c2n1` [Compound 63], under setting [1], the half-inhibitory concentration (IC50) was 11 nM.

With `Cc1ccnc(-n2ncc3c(C(C)(C)O)cc(N4CCOC[C@H]4C)nc32)c1` [Compound 64], the IC50 under setting [1] was 92 nM.

For the compound `C[C@@H]1COCCN1c1cc(C(C)(C)O)c2cnn(-c3cccc(N)n3)c2n1` [Compound 65], the IC50 under setting [1] turned out to be 104 nM.

With `C[C@@H]1COCCN1c1cc(C(C)(C)C#N)c2cnn(Cc3ccn[nH]3)c2n1` [Compound 66], the IC50 was found to be 448 nM.

In the case of `C[C@@H]1COCCN1c1cc(C(C)(C)O)c2cnn(-c3cccnn3)c2n1` [Compound 67], the IC50 under setting [1] came out at 198 nM.

With `C[C@@H]1COCCN1c1cc(C(C)(C)C#N)c2cnn(-c3n[nH]cc3F)c2n1` [Compound 68], under setting [1], the IC50 was determined as 1340 nM.

On to `C[C@@H]1COCCN1c1nc2c(cnn2-c2cc[nH]n2)c(C(C)(C)C#N)c1Cl` [Compound 69], for which the half-maximal inhibitory concentration (IC50) under setting [1] was found to be 554 nM.

`C=Cc1nn(-c2cc[nH]n2)c2nc(N3CCOC[C@H]3C)cc(C(C)(C)C#N)c12` [Compound 71]: the IC50 under setting [1] was below 5 nM.

Consider `C[C@@H]1COCCN1c1cc(-c2nncs2)c2cnn(-c3cc[nH]n3)c2n1` [Compound 72], for which the IC50 under setting [1] came to 94 nM.

For the compound `C[C@@H]1COCCN1c1cc(C2(C#N)CCOCC2)c2cnn(-c3cc[nH]n3)c2n1` [Compound 73], the IC50 under setting [1] is 3 nM.

On to `C[C@@H]1COCCN1c1cc(C2(C#N)CCSCC2)c2cnn(-c3cc[nH]n3)c2n1` [Compound 74], for which the IC50 under setting [1] amounted to 8 nM.

As for `C[C@@H]1COCCN1c1cc(C2(C#N)CC[S+]([O-])CC2)c2cnn(-c3cc[nH]n3)c2n1` (stereo partly drawn) [Compound 75], under setting [1], the concentration for half-maximal inhibition (IC50) was 29 nM.

On to `C[C@@H]1COCCN1c1cc(C2(C#N)CCS(=O)(=O)CC2)c2cnn(-c3cc[nH]n3)c2n1` [Compound 76], for which the half-inhibitory concentration (IC50) under setting [1] is 36 nM.

As for `C[C@@H]1COCCN1c1cc(C2(C(N)=O)CCCCC2)c2cnn(-c3cc[nH]n3)c2n1` [Compound 77], the IC50 under setting [1] is 5 nM.

Take `C[C@@H]1COCCN1c1cc(C2(CN)CCCCC2)c2cnn(-c3cc[nH]n3)c2n1` [Compound 78]: the IC50 under setting [1] was 24 nM.

As to `C[C@@H]1COCCN1c1cc(C2(C#N)CN(C(=O)OC(C)(C)C)C2)c2cnn(-c3cc[nH]n3)c2n1` [Compound 79], under setting [1], the IC50 is 30 nM.

Take `C[C@@H]1COCCN1c1cc(C2(C#N)CCN(C(=O)OC(C)(C)C)C2)c2cnn(-c3cc[nH]n3)c2n1` (stereo partly drawn) [Compound 80]: the IC50 under setting [1] was 6 nM.

On to `C[C@@H]1COCCN1c1cc(C2(C#N)CCN(C(=O)OC(C)(C)C)CC2)c2cnn(-c3cc[nH]n3)c2n1` [Compound 81], for which the IC50 under setting [1] was determined as 8 nM.

Regarding `C[C@@H]1COCCN1c1cc(C2(C#N)CNC2)c2cnn(-c3cc[nH]n3)c2n1` [Compound 82], the IC50 under setting [1] came out at 17 nM.

Regarding `C[C@@H]1COCCN1c1cc(C2(C#N)CCNCC2)c2cnn(-c3cc[nH]n3)c2n1` [Compound 83], under setting [1], the IC50 was 22 nM.
